Measured values: patent US20100081679A1, “DIAMINOPYRIMIDINES AS FUNGICIDES” (Bayer CropScience AG, priority 2007, published 2010)
Marks after values point to notes of the source that are not given here.

experiment: logP determination via retention times, calibrated with unbranched alkan-2-ones; assay type: physicochemical; conditions: HPLC on reversed-phase C 18, EEC Directive 79/831 Annex V.A8; method *: 40° C., 0.1% aqueous formic acid and acetonitrile, linear gradient 10% to 95% acetonitrile

Structure (SMILES) | logP
CCOC(=O)Nc1ccc(Nc2ncc(Br)c(NCC3CC3)n2)cc1O [compound 489] | 1.75*
CN(C)S(=O)(=O)Oc1cccc(Nc2ncc(Br)c(NCC3CC3)n2)c1 [compound 485] | 2.51*
O=C1CCCN1c1cccc(Nc2ncc(Cl)c(NCC3CC3)n2)c1 [compound 520] | 1.56*
CN(C=O)c1ccc(Nc2ncc(Br)c(NCC3CC3)n2)cc1 [compound 490] | 1.63*
Cc1cc(C)cc(Nc2ncc(Br)c(NCC3CC3)n2)c1 [compound 471] | 2.36*
CCOC(=O)Nc1cccc(Nc2ncc(Cl)c(NCC3CC3)n2)c1 [compound 513] | 1.9*
N#Cc1ccc(Nc2ncc(Br)c(NCC3CC3)n2)cc1 [compound 475] | 2.7*
CCOC(=O)c1cccc(Nc2ncc(Br)c(NCC3CC3)n2)c1 [compound 477] | 2.51*
CC(C)(C)OC(=O)Nc1cccc(Nc2ncc(Cl)c(NCC3CC3)n2)c1 [compound 524] | 2.33*

same assay, conditions: HPLC on reversed-phase C18, method **: 43° C.; mobile phase 0.1% aqueous phosphoric acid and acetonitrile; linear gradient 10% to 95% acetonitrile

Structure (SMILES) | logP
CC(C)(C)NS(=O)(=O)Cc1ccc(Nc2ncc(Cl)c(NC3CC3)n2)cc1 [compound 326] | 1.99**

same assay, conditions: HPLC on reversed-phase C18, method *: 40° C., 0.1% aqueous formic acid and acetonitrile, linear gradient 10% to 95% acetonitrile

Structure (SMILES) | logP
O=C1CCCN1c1ccc(Nc2ncc(Cl)c(NCC3CC3)n2)cc1 [compound 154] | 1.5*
N#Cc1cccc(Nc2ncc(Br)c(NC3CC3)n2)c1 [compound 741] | 2.26*
COC(C)c1cccc(Nc2ncc(C(F)(F)F)c(NCC3CC3)n2)c1 (racemic) [compound 962] | 3.29*
CCCOc1cccc(Nc2ncc(C(F)(F)F)c(NC3CC3)n2)c1 [compound 699] | 3.92*
CCOC(=O)c1cccc(Nc2ncc(Br)c(NC3CC3)n2)c1 [compound 750] | 2.4*
Clc1cc(Nc2ncc(Cl)c(NC3CC3)n2)ccc1Br [compound 919] | 3.63*
CN(C)S(=O)(=O)Oc1ccc(Nc2ncc(Cl)c(NC3CC3)n2)cc1 [Example 102] | 2.08*
COCc1cccc(Nc2ncc(C(F)(F)F)c(NC3CC3)n2)c1 [compound 721] | 2.78*
CCC(C)Oc1cc(Nc2ncc(Cl)c(NC3CC3)n2)ccc1C (racemic) [compound 955] | 2.99*
CC(Nc1nc(Nc2ccccc2)ncc1Cl)C1CC1 (stereo not drawn) [compound 166] | 2.14*
Clc1ccc(Nc2ncc(Cl)c(NC3CC3)n2)cc1Br [compound 942] | 3.55*
O=C(N(c1ccc(Nc2ncc(Cl)c(NC3CC3)n2)cc1)C1CC1)C(F)(F)F [compound 120] | 2.54*
Oc1ccc(Nc2ncc(Cl)c(NC3CC3)n2)cc1F [compound 105] | 1.25*
Clc1cnc(Nc2ccc(C3CCCCC3)cc2)nc1NC1CC1 [compound 952] | 3.29*
Clc1cnc(Nc2cccc(C3CCNCC3)c2)nc1NC1CC1 [compound 727] | 0.88*
CCOC(=O)Nc1ccc(Nc2ncc(Br)c(NC3CC3)n2)cc1O [compound 728] | 1.53*

same assay, conditions: HPLC on reversed-phase C18, method *: 40° C.; mobile phase 0.1% aqueous formic acid and acetonitrile; linear gradient 10% to 95% acetonitrile

Structure (SMILES) | logP
Clc1cnc(Nc2ccc(OC3CCCC3)cc2)nc1NC1CC1 [compound 299] | 2.48*
Oc1ccc(Nc2ncc(Cl)c(NC3CC3)n2)c(F)c1 [compound 294] | 1.26*
CC(C)(C)C(=O)Cc1ccc(Nc2ncc(Br)c(NC3CC3)n2)cc1 [compound 355] | 2.39*
COC(=O)Cc1ccc(Nc2ncc(Cl)c(NC3CC3)n2)cc1 [compound 287] | 1.85*
O=C(Nc1ccc(Nc2ncc(Br)c(NC3CC3)n2)cc1)C(F)(F)F [compound 350] | 1.97*
COc1ccc(Nc2ncc(Cl)c(NC3CC3)n2)cc1 [compound 284] | 1.47*

same assay, conditions: HPLC on reversed-phase C18 column (EEC Directive 79/831 Annex V.A8); method *: 40° C.; 0.1% aqueous formic acid and acetonitrile; linear gradient 10% to 95% acetonitrile

Structure (SMILES) | logP
Brc1cnc(Nc2ccccc2)nc1NCC1CC1 [compound 189] | 1.93*
COCc1cccc(Nc2ncc(Br)c(NC3CC3)n2)c1 [compound 269] | 1.8*
COc1cc(Nc2ncc(Br)c(NCC3CC3)n2)cc(OC)c1OC [compound 190] | 1.88*
CC(C)(C)NC(=O)c1ccc(Nc2ncc(C(F)(F)F)c(NCC3CC3)n2)cc1 [compound 207] | 3.07*
O=C1NC(=O)C(c2ccc(Nc3ncc(Cl)c(NC4CC4)n3)cc2)N1 (stereo not drawn) [compound 176] | 0.61*
O=C1CCCN1c1cccc(Nc2ncc(C(F)(F)F)c(NC3CC3)n2)c1 [compound 255] | 2.23*
CSc1cccc(Nc2ncc(C(F)(F)F)c(NCC3CC3)n2)c1 [compound 208] | 3.41*
CC1COC(=O)N1c1cccc(Nc2ncc(Cl)c(NC3CC3)n2)c1 (stereo not drawn) [compound 267] | 1.57*

same assay, conditions: HPLC reversed-phase C 18, EEC Directive 79/831 Annex V.A8; method **: 43° C., 0.1% aqueous phosphoric acid and acetonitrile, linear gradient 10% to 95% acetonitrile

Structure (SMILES) | logP
CON(C(C)=O)c1cccc(Nc2ncc(Cl)c(NC3CC3)n2)c1 [compound 850] | 1.57**
O=C1OCCN1c1cccc(Nc2ncc(C(F)(F)F)c(NC3CC3)n2)c1 [compound 834] | 2.18**
O=c1ccccn1-c1cccc(Nc2ncc(Br)c(NC3CC3)n2)c1 [compound 833] | 1.46**

same assay, conditions: HPLC reversed-phase C 18, EEC Directive 79/831 Annex V.A8; method *: 40° C., 0.1% aqueous formic acid and acetonitrile, linear gradient 10% to 95% acetonitrile

Structure (SMILES) | logP
N#CCc1cc(Nc2ncc(Cl)c(NC3CC3)n2)ccc1F [compound 813] | 1.76*
COC(c1cccc(Nc2ncc(Cl)c(NCC3CC3)n2)c1)C(F)(F)F (stereo not drawn) [compound 792] | 2.74*
O=C1OCCN1c1cccc(Nc2ncc(C(F)(F)F)c(NC3CC3)n2)c1 [compound 834] | 2.18*;
Brc1cnc(Nc2ccccc2)nc1NC1CC1 [compound 836] | 2.56*
O=c1ccccn1-c1cccc(Nc2ncc(Br)c(NC3CC3)n2)c1 [compound 833] | 1.46*;
O=C1OCCN1c1cccc(Nc2ncc(Cl)c(NCC3CC3)n2)c1 [compound 861] | 1.63*

same assay, conditions: method **: HPLC reversed-phase C 18, 43° C., 0.1% aqueous phosphoric acid and acetonitrile, linear gradient 10% to 95% acetonitrile

Structure (SMILES) | logP
CC(=O)c1cccc(Nc2ncc(Cl)c(NCC3CC3)n2)c1 [compound 13] | 1.87**

same assay, conditions: method **: HPLC reversed-phase C 18, temperature 43° C.; mobile phase 0.1% aqueous phosphoric acid and acetonitrile; linear gradient 10% to 95% acetonitrile

Structure (SMILES) | logP
CC(=O)Nc1cccc(Nc2ncc(C(F)(F)F)c(NC3CC3)n2)c1 [compound 649] | 1.77**

same assay, conditions: method **: HPLC, reversed-phase C 18, 43° C., mobile phase 0.1% aqueous phosphoric acid and acetonitrile, linear gradient from 10% to 95% acetonitrile

Structure (SMILES) | logP
COc1ccc(CN(c2nc(Nc3cccc(N4CCCC4=O)c3)ncc2Cl)C2CC2)cc1 [compound 1045] | 3.37**
Clc1cnc(Nc2cccc(CN3CCCC3)c2)nc1NC1CC1 [compound 1043] | 0.92**
COCCc1cccc(Nc2ncc(C(F)(F)F)c(NC3CC3)n2)c1 [compound 1039] | 2.88**

same assay, conditions: method *: HPLC reversed-phase C18, 40° C., 0.1% aqueous formic acid and acetonitrile, linear gradient 10% to 95% acetonitrile

Structure (SMILES) | logP
CSc1cc(Nc2ncc(Br)c(NCC3CC3)n2)ccc1C [compound 459] | 2.58*
CSc1ccc(Nc2ncc(Br)c(NCC3CC3)n2)cc1 [compound 453] | 2.29*
N#Cc1cnc(Nc2ccccc2)nc1NC1CC1 [compound 40] | 2.44*
CNC(=O)Oc1cccc(Nc2ncc(Br)c(NC3CC3)n2)c1 [compound 386] | 1.56*
CCOC(=O)Nc1cccc(Nc2ncc(Br)c(NCC3CC3)n2)c1 [compound 428] | 1.99*
CC(=O)N(c1ccc(Nc2ncc(Cl)c(NC3CC3)n2)cc1)C1CC1 [Example 63] | 1.62*
COC(=O)Nc1ccc(Nc2ncc(Br)c(NC3CC3)n2)cc1Cl [compound 430] | 2.2*
COc1cc(Nc2ncc(Cl)c(NC3CC3)n2)cc(OC)c1 [Example 3] | 1.91*
CS(=O)(=O)c1ccc(Nc2ncc(Br)c(NCC3CC3)n2)cc1 [compound 448] | 2.09*

same assay, conditions: method *: HPLC reversed-phase C 18, temperature 40° C.; mobile phase 0.1% aqueous formic acid and acetonitrile; linear gradient 10% to 95% acetonitrile

Structure (SMILES) | logP
CN1CCN(c2cccc(Nc3ncc(Br)c(NC4CC4)n3)c2)C1=O [compound 570] | 1.58*
CS(=O)(=O)Cc1cccc(Nc2ncc(Cl)c(NCC3CC3)n2)c1 [compound 566] | 1.38*
CC(=O)Nc1cc(Nc2ncc(F)c(NC3CC3)n2)ccc1C [compound 601] | 1.15*
COC(c1cccc(Nc2ncc(C(F)(F)F)c(NC3CC3)n2)c1)C(F)(F)F (stereo not drawn) [compound 624] | 3.74*
CNC(=O)c1cccc(Nc2ncc(C#N)c(NC3CC3)n2)c1 [compound 608] | 1.64*
CNC(=O)Nc1cccc(Nc2ncc(F)c(NC3CC3)n2)c1 [compound 597] | 1.28*
CC(=O)Nc1cccc(Nc2ncc(C(F)(F)F)c(NC3CC3)n2)c1 [compound 649] | 1.78*;
CSc1cccc(Nc2ncc(C#N)c(NC3CC3)n2)c1 [compound 609] | 2.92*

same assay, conditions: method *: HPLC, reversed-phase C 18, 40° C., mobile phase 0.1% aqueous formic acid and acetonitrile, linear gradient from 10% to 95% acetonitrile

Structure (SMILES) | logP
COC(=O)c1cc(Nc2ncc(Cl)c(NC3CC3)n2)cc(C(=O)OC)c1 [compound 1001] | 2.46*
COC(=O)c1cc(Nc2ncc(Cl)c(NC3CC3)n2)ccc1OC [compound 1004] | 1.58*
CCc1cccc(Nc2ncc(C(F)(F)F)c(NC3CC3)n2)c1 [compound 1034] | 3.67*
CCc1cccc(Nc2ncc(Cl)c(N(C)C3CC3)n2)c1 [compound 1058] | 3.65*
Clc1cnc(Nc2ccc3c(c2)CCC3)nc1NC1CC1 [compound 1000] | 2.11*

same assay, conditions: pH 2.3; read-out: logP (pH2.3)

Structure (SMILES) | chromatographic logP
Clc1cnc(Nc2ccccc2)nc1NC1CC1 [Example 2, 5-Chloro-N^4-cyclopropyl-N^2-phenylpyrimidine-2,4-diamine] | 1.61

same assay, conditions: reversed-phase C18 HPLC column; method *: HPLC reversed-phase C 18, 40° C., 0.1% aqueous formic acid and acetonitrile, linear gradient 10% to 95% acetonitrile; read-out: logP

Structure (SMILES) | chromatographic logP
Clc1cnc(Nc2ccccc2)nc1NC1CC1 [Example 2, 5-Chloro-N^4-cyclopropyl-N^2-phenylpyrimidine-2,4-diamine] | 1.61
